Measured values: publication PMC6598645 (Chemical Science, 2019)
*1 amine or outer side, *2 acyl side, *3 side chain or, on linkers, in order; H or OH if unused. Where a SMILES comes first, the peptide text is derived from it. Bridges are numbered along the chain shown (N, C = ends). [ ]: non-standard residue; d: D form. X2 = O=C([C@H](CCNP(=O)(CC[*:3])OCc1ccccc1)N[*:1])[*:2]; Nle = CCCC[C@H](N)C(=O)O

Tested on: HeLa cells
Experiment: Cellular uptake of CF-labelled peptides, confocal imaging
Type: cell-based
Conditions: 10 μM mixture of 10% fluorescein (CF) labelled and 90% non-labelled peptides, three hours, 37°C, confocal microscopy

Molecule | cellular uptake
CCCC[C@H](NC(=O)[C@H](CCCNC(=N)N)NC(=O)[C@H](CCC(N)=O)NC(=O)[C@@H](NC(=O)[C@H]1CSCCP(=O)(OCc2ccccc2)NCC[C@H](NC(=O)[C@H](CC(C)C)NC(=O)[C@H](CO)NC(=O)[C@H](CCCNC(=N)N)NC(=O)[C@H](CCC(=O)O)NC(=O)[C@H](CCCNC(=N)N)NC(=O)[C@H](Cc2c[nH]cn2)NC(=O)[C@H](CCC(=O)O)NC(=O)[C@H](CC(C)C)NC(=O)[C@H](CCC(N)=O)NC(=O)[C@H](CCC(=O)O)NC(=O)[C@H](CCC(N)=O)NC(=O)[C@H](CO)NC(=O)[C@H](CC(C)C)NC(C)=O)C(=O)N[C@@H]([C@@H](C)O)C(=O)N[C@@H](CC(C)C)C(=O)N[C@@H](CCCNC(=N)N)C(=O)N1)[C@@H](C)CC)C(=O)N[C@@H](CC(C)C)C(=O)N[C@@H](Cc1ccccc1)C(N)=O (stereo partly drawn) [compound 13, cyclic-benzylphosphonamidate-BCL9-Nle-Aha-DCys peptide] (Ac-LSQEQLEHRERSL[X2]TLR[dC]IQR[Nle]LF-NH2; thioether 14-18; N-terminus and C-terminus assumed) | increased cellular uptake
AcLSQEQLEHRERSL TLR IQRNMLFNH2 (sidechain bridge or staple) [compound 7, RCM-BCL9-Nle peptide] | taken up readily
